Test: Metabolite identification of DH in rat plasma, urine, feces and rat liver microsomes by UHPLC-Q-Orbitrap MS/MS
Type: in vivo
Set-up: key: F*: feces; U*: urine; P*: plasma; LM*: Liver microsome
Conditions: rat plasma
Method: For the analysis of DH metabolites, the same UHPLC-MS/MS system was used for the plasma analysis, and the ACQUIT UHPLC BEH C18 column was also utilized. Mobile phase A consisted of 0.1% formic acid in water (v/v), while mobile phase B comprised acetonitrile. The flow rate was maintained at 0.2 mL/min, with a 10 µL injection volume. The column temperature was kept constant at 35 °C, and the RS autosampler temperature was maintained at 10 °C. The gradient elution was as follows: 0–3 min(5%B), 3–11 min (7%B), 11–18 min (7%B), and 18–45 min (30%B). A full MS/dd MS^2 mode in positive heated electrospray ionization (HESI) with 140,000 (for MS) and 17,500 (for MS/MS) resolutions was used for the Q–Exactive Plus Orbitrap MS. The compounds identified in full MS/dd MS^2 mode will be scanned using PRM scanning. The following MS parameters were employed: AGC target, 1 × 10^6; Maximum IT, 100 ms; Spray voltage, 3.2 kV; Capillary temp, 320 °C; S-lens RF level, 55; HCD Energy 20, 40, and 60.
Rat liver microsomes were used for in vitro experiments to study DH metabolism in rats more quickly and easily. After that, the cofactors of phases I and II were added to create the phase I and phase II metabolic systems. The composition of the reagent kit and the procedure can be found in our previous work.
For the plasma study, 100 µL of plasma was obtained from rats at 0.5, 1, 2, and 4 h after medicine administration. Then, 300 µL of acetonitrile was added to the above plasma, vortexed for 1 min, and centrifuged for 7 min. The supernatant was collected, and the remaining liquid was dried using nitrogen gas at 40 °C. The blow-dried samples were re-dissolved in 100 µL methanol, sonicated for 1 min, and centrifuged for 7 min.
Urine was collected during the period spanning from 0 to 48 h following administration, with each period’s combined urine comprising 10 mL and 30 mL of acetonitrile added thereto. After a 10 min interval of sonication, the urine samples were transferred into 1.5 mL centrifuge tubes, vortexed for 1 min, and then centrifuged at a speed of 14,000 rpm for 10 min. Successively, the supernatant was merged and subjected to drying by nitrogen gas at 40 °C. The blow-dried samples were re-dissolved in 100 µL of methanol, sonicated for 1 min, and centrifuged for 7 min.
For the fecal study, feces were collected within 0–48 h following administration, dried to powder at room temperature in a shaded area, and combined to yield 8 mL per period, to which 40 mL of acetonitrile was added. Following 30 min of sonication, the samples were transferred to 1.5 mL centrifuge tubes and centrifuged at 14,000 rpm for 10 min. The supernatant was collected and dried with nitrogen at 40 °C before analysis via UHPLC-MS/MS. Before analysis, the blow-dried samples were re-dissolved in 100 µL of methanol, sonicated for 1 min, and centrifuged for 7 min.
Compound Discovery 3.3 was used for data processing. The MS spectrometric features mainly include retention time, exact mass, peak intensity, and fragment ions. The data processing mainly included selecting spectra, aligning retention times, creating pattern traces, creating fish traces, generating expected compounds, finding expected compounds, grouping expected compounds, fish scoring, and marking background compounds. The mass tolerance is less than 5 ppm.

Structure (SMILES)	Rat and LM* (matrices in which DH or the metabolite was detected)
COc1cc2c(cc1OC)C(c1ccc(N)cc1)NCC2 (stereo not shown) [M2–B]	P*, U*, LM*
CNc1ccc(C2NCCc3cc(OC)c(OC)cc32)cc1 (stereo not shown) [M4–C]	P*, U*, LM*
CN(C)c1ccc(-c2nccc3cc(O)c(O)cc23)cc1 [M6–A]	F*
CN(C)c1ccc(C2NCCc3cc(O)c(O)cc32)cc1 (stereo not shown) [M2–A]	U*, LM*
